Data on 28 molecules can be found in paper PMC9200688, “The production and biochemical characterization of α-carbonic anhydrase from Lactobacillus rhamnosus GG” (Applied Microbiology and Biotechnology, 2022).

pKi: −log10 of the molar value. Entries after “also recorded” stand apart in the source; their conditions may differ.

One test deals with T1, α-carbonic anhydrase of L. rhamnosus (LrhCA) (Lacticaseibacillus rhamnosus, UniProt A0A809N5C7).
T1 sequence (A0A809N5C7 1-215): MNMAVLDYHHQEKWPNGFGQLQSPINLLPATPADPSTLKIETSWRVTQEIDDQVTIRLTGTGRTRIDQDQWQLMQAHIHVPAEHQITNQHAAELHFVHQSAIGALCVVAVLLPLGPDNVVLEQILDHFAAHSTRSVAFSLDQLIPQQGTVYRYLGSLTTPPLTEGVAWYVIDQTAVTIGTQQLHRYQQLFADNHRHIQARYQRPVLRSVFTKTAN
The test is described as follows: Sulfonamide inhibition of LrhCA, stopped-flow CO2 hydrase assay. The conditions noted are these: Ki LrhCA. Format: biochemical, Lactobacillus rhamnosus GG.
In turn, `Cc1ccc(S(N)(=O)=O)cc1` [compound 4] had a negative-log Ki (pKi) of 5.25.
The molecule `NS(=O)(=O)c1ccc(CO)cc1` [compound 16] showed a pKi of 5.22.
With `NS(=O)(=O)c1ccc(S(=O)(=O)Nc2cccc3c(Cl)c[nH]c23)cc1` [IND, indisulam, reference compound], the pKi was < 5.00.
As to `CC(=O)/N=c1/sc(S(N)(=O)=O)nn1C` [MZA, methazolamide, reference compound], the pKi is 6.08.
Turning to `Nc1ccc(S(=O)(=O)Nc2nnc(S(N)(=O)=O)s2)cc1`, the pKi was 6.50.
Take `Cc1onc(-c2ccccc2)c1-c1ccc(S(N)(=O)=O)cc1` [VLX, valdecoxib, reference compound]: the pKi is < 5.00.
`NS(=O)(=O)Cc1noc2ccccc12` [ZNS, reference compound] had a pKi of 5.05.
The same measure, in the same setting: for `Nc1ccc(S(N)(=O)=O)cc1Cl` [compound 8] the value was 5.05.
In turn, `Nc1nccc(Nc2ccc(S(N)(=O)=O)cc2)n1` [compound 19] gave a negative-log Ki (pKi) of 5.36.
Regarding `CC1(C)O[C@@H]2[C@@H](CO[C@@]3(COS(N)(=O)=O)OC(C)(C)O[C@@H]23)O1` [TPM, topiramate, reference compound], the negative logarithm of the Ki (pKi) is 6.29.
In the case of `Nc1cc(Cl)c(S(N)(=O)=O)cc1S(N)(=O)=O` [compound 12], the negative-log Ki (pKi) was 5.10.
With `O=C1NS(=O)(=O)c2ccccc21` [SAC, saccharin, reference compound], the negative logarithm of the Ki (pKi) was < 5.00.
The molecule `NS(=O)(=O)c1ccc(N2CCCCS2(=O)=O)cc1` [SLT, reference compound] had a negative logarithm of the Ki (pKi) of 5.03.
`Nc1cc(C(F)(F)F)c(S(N)(=O)=O)cc1S(N)(=O)=O` [compound 11] showed a pKi of 5.12.
Regarding `Nc1ccc(S(N)(=O)=O)cc1Br` [compound 9, 3-bromo-4-amino-benzenesulfonamide], the pKi is < 5.00.
`CCN[C@H]1CN(CCCOC)S(=O)(=O)c2sc(S(N)(=O)=O)cc21` [BRZ, brinzolamide, reference compound] had a pKi of 6.36.
With `NS(=O)(=O)c1nnc(NS(=O)(=O)c2ccccc2)s1` [BZA, benzolamide, reference compound], the negative logarithm of the Ki (pKi) is 6.41.
In turn, `Nc1nnc(S(N)(=O)=O)s1` [compound 13, 5-amino-1,3,4-thiadizole-2-sulfonamide] gave a negative-log Ki (pKi) of 6.06.
`NS(=O)(=O)c1ccc(C(=O)O)cc1` [compound 18] had a pKi of 5.57.

Staying with this test, now noted: stopped-flow CO2 hydrase assay; mean from three different assays, errors 5–10%; recombinant LrhCA; 15 min preincubation at room temperature; read-out: Ki LrhCA.
As to `NCc1ccc(S(N)(=O)=O)cc1` [compound 5, 4-aminomethyl-benzenesulfonamides], the negative logarithm of the Ki (pKi) was < 5.00.
For `NS(=O)(=O)c1cc2c(cc1Cl)NCNS2(=O)=O` [HCT, hydrochlorothiazide, reference compound], the negative-log Ki (pKi) is < 5.00.
On the same count and under the same terms, the same measure for `Nc1ccc(S(=O)(=O)Nc2ccc(S(N)(=O)=O)cc2)cc1` [compound 22]: 6.25; for “4-(4-sulfanilyl-aminomethyl)-benzenesulfonamide [compound 23]”: 6.31; for `NS(=O)(=O)c1cc(Cl)cc(Cl)c1O` [compound 10]: 5.30.
Still for that read-out and setting: for “4-(2-hydroxymethyl-4-nitrophenyl-sulfonamido)ethylbenzenesulfonamide [compound 24]” the value was 6.39; for `NS(=O)(=O)c1ccc(CCNS(=O)(=O)c2ccc([N+](=O)[O-])cc2CO)cc1`, 6.42; for `NS(=O)(=O)c1cccc(S(N)(=O)=O)c1` [compound 3], 5.52.

For a further test, the target named is hCA I (human carbonic anhydrase isozyme I).
Assay: not given
The conditions noted are these: human recombinant isozyme; stopped-flow CO2 hydrase assay; data published previously, ref Supuran [2008]; cited from earlier work.
`Cc1ccc(S(N)(=O)=O)cc1` [compound 4]: the pKi was 4.11.
For the molecule `NS(=O)(=O)c1cccc(S(N)(=O)=O)c1` [compound 3], the negative-log Ki (pKi) is 7.10.
Turning to `O=C1NS(=O)(=O)c2ccccc21` [SAC, saccharin, reference compound], the pKi is 4.73.

The next test deals with L. rhamnosus GG. The experiment in a line: In vitro inhibition assay with acetazolamide: growth of L. rhamnosus GG culture (OD595). The conditions noted are these: AAZ 1 nM to 10 mM in MRS, 37 °C, anaerobic and aerobic, 96 h, OD595 at 0, 24, 48, 72, 96 h.
On to `CC(=O)Nc1nnc(S(N)(=O)=O)s1` [AAZ, acetazolamide], for which the “Effect of acetazolamide on cell growth of L. rhamnosus GG (OD595)” value (“Effect of acetazolamide” below) is listed as “very little or no inhibitory effect on cell growth; also recorded: no significant effect on the growth”.

The test is the same for the next values; noted with them: AAZ 1 nM to 10 mM in MRS, 37 °C, anaerobic and aerobic, 96 h, OD595 at 0, 24, 48, 72, 96 h; listed as Acetazolamide.
Turning to `CC(=O)Nc1nnc(S(N)(=O)=O)s1` [AAZ, acetazolamide], the “Effect of acetazolamide” value is “marginal inhibitory effect on cell growth”.

Staying with this test, now noted: AAZ 1 nM to 10 mM in MRS, 37 °C, anaerobic and aerobic, 96 h, OD595 at 0, 24, 48, 72, 96 h; listed as acetazolamide.
As for `CC(=O)Nc1nnc(S(N)(=O)=O)s1` [AAZ, acetazolamide], the “Effect of acetazolamide” value was “no significant effect on cell growth”.
